Data as given in patent US6613317B1, “Volatile attractants for diabrotica species” (priority 1988, dated 2003).
Marks after values point to notes of the source that are not given here.

Tests used:
NCR = test: Limit of response rating of squash blossom volatiles on sticky traps (Example 5); format: in vivo, Diabrotica barberi; conditions: 24 hour; four replicate traps; 0.01 mg to 200 mg
Summary of the method: (§1)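 Adult Diabrotica beetles were tested against cylindrical sticky traps baited with cotton wicks holding 0.01 mg to 200 mg of individual Cucurbita maxima blossom volatiles. Response limit rated by trap catch.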

SCR = test: as above; format: in vivo, Diabrotica undecimpunctata howardi; conditions: 24 hour; four replicate traps; 0.01 mg to 200 mg
Summary of the method: as §1

[1] = tested on: southern corn rootworm (SCR) adults; test: Sticky trap attraction in sweet corn plots (Example 1); format: in vivo, Diabrotica undecimpunctata howardi; conditions: for Mean number of SCR per trap (±standard deviation): n = 4; for relative percent activity of the mean SCR trap catch as compared with the highest mean value in the column: mixture 20 mg each component
Summary of the method: (§2)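 Field trapping in sweet-corn plots beside a Blue Hubbard squash trap crop; lures on mineral-oil-impregnated cotton wicks atop sticky paper-carton traps on 1-m posts, 4 replicates in randomized complete blocks. Beetles counted after 24 h; VIPAE/VIP/TIC mixtures and single components at 1–300 mg per trap, ANOVA/Duncan at P=0.05.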

[2] = tested on: western corn rootworm (WCR) adults; conditions: in vivo; cited from earlier work
[3] = tested on: western corn rootworm (WCR) adults; test: Sticky trap attraction in sweet corn plots (Example 1); format: in vivo, Diabrotica virgifera virgifera; conditions: for Mean number of WCR per trap (±standard deviation): n = 4; for relative percent activity of the mean WCR trap catch as compared with the highest mean value in the column: mixture 20 mg each component
Summary of the method: as §2

WCR = test: Limit of response rating of squash blossom volatiles on sticky traps (Example 5); format: in vivo, Diabrotica virgifera virgifera; conditions: 24 hour
Summary of the method: as §1

[4] = tested on: western corn rootworm (WCR) adults; test: Sticky trap attraction in corn, estragole analogues (Example 3); format: in vivo, Diabrotica virgifera virgifera; conditions: 100 mg per trap
Summary of the method: (§3)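 Cotton wicks dosed with 100 mg or 100 μL attractant per trap on TangleTrap-coated cartons, four replicates 10 m apart on 1 m posts at field edges of hybrid or sweet corn. Mean beetles caught after ~24 h; log-transformed ANOVA with Duncan's test, P=0.05.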

D. u. howardi adults = format: in vivo, Diabrotica undecimpunctata howardi; conditions: TEX×PEP bait with 0.1% methomyl alone or with 1% veratrole added
From the text: A noncucurbit carrier, 10-mesh corn grits (71% of which passed through a 2-mm screen), was obtained from Illinois Cereal Mills, Paris, Ill. (designated as pesticide carrier grits, 980). This carrier was impregnated with different levels of cucurbitacins by addition of varying amounts of a chloroform extract of AND×MAX fruit containing 0.12% cucurbitacins B and D (Metcalf, et al., Proc. Natl. Acad. Sci. USA, 77:3769-3772 (1980), Metcalf, et al., Environ. Entomol., 11:921-927 (1982)). The cucurbitacin-containing areas were scraped from plates, extracted in anhydrous methanol, centrifuged, and the UV absorption at 210 nm determined by UV spectrophotometry. Content of cucurbitacins was quantified from standard curves of pure cucurbitacins B, D, E and I, and E-glycoside (Metcalf, et al., Proc. Natl. Acad. Sci. USA, 77:3769-3772 (1980), Metcalf, et al., Environ. Entomol., 11:921-927 (1982)).
The various dried, ground, and insecticide-treated baits were given preliminary field evaluation by placing uniform amounts in petri-dish halves (150-mm diameter) that were placed at random on the ground in cucurbit and corn rows heavily infested ith SCR, WCR, and SCB adults. Ten dishes were used for each treatment; the maximum dosage of dried baits used was 300 mg per dish, equivalent to […]. Mortality counts of adult beetles in the dishes were made after 20-40 h.

[5] = tested on: southern corn rootworm (SCR) adults; test: Sticky trap attraction in corn, estragole analogues (Example 3); format: in vivo, Diabrotica undecimpunctata howardi; conditions: September 11; 100 mg per trap; n = 4
Summary of the method: as §3

[6] = August 4, second year, each compound 20 mg per trap
[7] = August 7, second year, each compound 20 mg per trap
[8] = August first year, South Farms, 24 h, single compounds 100 mg per trap, mixture 20 mg of each component
[9] = August first year, single compounds 100 mg per trap

| SMILES | relative percent activity (SCR) as compared with the highest mean value for the test date [1, 6] [%] | Mean number of SCR per trap (±standard deviation) [1, 6] [per trap] | relative percent activity (SCR) as compared with the highest mean value for the test date [1, 7] [%] | Mean number of SCR per trap (±standard deviation) [1, 7] | Mean number of SCR per trap (±standard deviation) [1, 8] [per trap] | relative percent activity of the mean SCR trap catch as compared with the highest mean value in the column [1, 9] [%] | relative percent activity (WCR) as compared with the highest mean value for the test date [3, 6] [%] | Mean number of WCR per trap (±standard deviation) [3, 6] [per trap] | relative percent activity (WCR) as compared with the highest mean value for the test date [3, 7] [%] | Mean number of WCR per trap (±standard deviation) [3, 7] [per trap] | Mean number of WCR per trap (±standard deviation) [3, 8] [per trap] | relative percent activity of the mean WCR trap catch as compared with the highest mean value in the column [3, 9] [%] | melting point [°C] | further results |
| --- | --- | --- | --- | --- | --- | --- | --- | --- | --- | --- | --- | --- | --- | --- |
| c1ccc2[nH]ccc2c1 [Indole] | 4 | 1.5 ± 1.0 | 6 | 2.8 ± 1.3 per trap | 2.3 ± 2.1 | 11 | 100 | 51.3 ± 24.4 | 87 | 27.5 ± 11.8 | 3.3 ± 2.1 | 49 |  | Attractant Rating NCR (by limit of response) (NCR): 0 (200); Attractant Rating SCR (by limit of response) (SCR): 0 (200); LR values for WCR attraction (literature) [2]: 1 mg; Attractant Rating WCR (by limit of response) (WCR; four replicate traps, 0.01 mg to 200 mg): +4 (1-3); LR for WCR (WCR; sticky traps): 1 mg |
| CCOc1ccc(OC)cc1 [VI, 4-methoxyphenyl ethyl ether] |  |  |  |  |  |  |  |  |  |  |  |  | 34 to 35 | Relative percent activity as compared with the highest mean in the column (WCR) ([4]; August 29): 8%; Mean number of WCR per sticky trap (±standard deviation) after 24 hours ([4]; August 29, n = 4): 12.0 ± 1.8 per sticky trap; Relative percent activity as compared with the highest mean in the column (WCR) ([4]; July 30): 39%; Mean number of WCR per sticky trap (±standard deviation) after 24 hours ([4]; July 30, n = 4): 32.0 ± 8.4 per sticky trap |
| COc1ccccc1OC [Veratrole, 1,2-dimethoxybenzene] | 15 | 5.8 ± 3.4 | 20 | 8.8 ± 2.l | 6.8 ± 3.6 | 33 | 39 | 20.0 ± 5.7 | 59 | 18.5 ± 7.2 | 1.5 ± 1.0 | 22 |  | mean (±SD) dead SCR beetles for 10 dishes (D. u. howardi adults): 63.1±39.9 |
| COC(=O)C=Cc1ccc(OC)cc1 [XIV, 4-methoxycinnamic acid methyl ester] |  |  |  |  |  |  |  |  |  |  |  |  | 87 to 89 | Mean number of SCR adults per sticky trap (±standard deviation) after 24 hours [5]: 0.7 ± 1.5^a per sticky trap; Mean number of WCR adults per sticky trap (±standard deviation) after 24 hours ([4]; September 11, n = 4): 1.0 ± 1.1^a per sticky trap |
